Test results published in ChEMBL document CHEMBL4619721, “Design, synthesis & biological evaluation of ferulic acid-based small molecule inhibitors against tumor-associated carbonic anhydrase IX” (Bioorg Med Chem, 2020).
Values belong to the compound of their own block, whether it stands above or below them. The source made the active and inactive calls. The calls are words filed in the database; no cut-off is given here.

Experiments:
Carbonic anhydrase 9 [1] = molecular target: T1, Carbonic anhydrase 9 (Homo sapiens, UniProt Q16790);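 further: esterase activity of the enzyme on p-nitrophenyl acetate, followed by UV-Vis spectrophotometry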
Description: Inhibition of human carbonic anhydrase 9 using p-nitrophenyl acetate as substrate by UV-VIS spectrophotometric analysis

Carbonic anhydrase 2 = Carbonic anhydrase 2 (Homo sapiens, UniProt P00918); experiment: Inhibition of human carbonic anhydrase 2 using p-nitrophenyl acetate as substrate by UV-VIS spectrophotometric analysis
[2] = molecular target: Carbonic anhydrase 5A, mitochondrial (Homo sapiens, UniProt P35218); experiment: Inhibition of human carbonic anhydrase 5A using p-nitrophenyl acetate as substrate by UV-VIS spectrophotometric analysis
Carbonic anhydrase 9 [3] = molecular target: T1, Carbonic anhydrase 9; experiment: Binding affinity to human carbonic anhydrase 9 assessed as dissociation constant by isothermal titration calorimetric assay
Albumin = Albumin (Homo sapiens, UniProt P02768); experiment: Binding affinity to human serum albumin assessed as decrease in emission intensity by fluorescence emission spectrum based Stern-Volmer method; format: ADME; conditions: isolated protein
HT-29 [4] = experiment: Cytotoxicity against human HT-29 cells assessed as reduction in cell viability after 48 hrs by MTT assay; format: functional, cell-based; conditions: HT-29, 48 h
HepG2 [5] = experiment: Cytotoxicity against human HepG2 cells assessed as reduction in cell viability after 48 hrs by MTT assay; format: functional, cell-based; conditions: HepG2, 48 h
HEK293 = experiment: Cytotoxicity against HEK293 cells assessed as reduction in cell viability measured after 48 or 72 hrs by MTT assay; format: cell-based; conditions: human, hek293, 72 h
HT-29 [6] = experiment: Down regulation of carbonic anhydrase 9 protein expression in human HT-29 cells by immunoblotting analysis; format: functional, cell-based
HepG2 [7] = experiment: Down regulation of carbonic anhydrase 9 protein expression in human HepG2 cells by immunoblotting analysis; format: functional, cell-based
HT-29 [8] = experiment: Down regulation of HIF1-alpha protein expression in human HT-29 cells by immunoblotting analysis; format: functional, cell-based
HepG2 [9] = experiment: Down regulation of HIF1-alpha protein expression in human HepG2 cells by immunoblotting analysis; format: functional, cell-based
HT-29 [10] = experiment: Antimigratory activity against human HT-29 cells assessed as inhibition of cell migration at IC50 concentration after 24 hrs by crystal violet staining microscopy based transwell migration assay; format: functional
HepG2 [11] = experiment: Antimigratory activity against human HepG2 cells assessed as inhibition of cell migration at IC50 concentration after 24 hrs by crystal violet staining microscopy based transwell migration assay; format: functional
HT-29 [12] = experiment: Inhibition of colony formation in human HT-29 cells at IC50 concentration after 10 days by crystal violet staining based colony formation assay; format: functional, cell-based
HepG2 [13] = experiment: Inhibition of colony formation in human HepG2 cells at IC50 concentration after 10 days by crystal violet staining based colony formation assay; format: functional, cell-based
HT-29 [14] = experiment: Effect on ephithelial-mesenchymal transition in human HT-29 cells assessed as decrease in snail expression at IC50 concentration after 48 hrs by immunoblotting analysis; format: functional, cell-based
HepG2 [15] = experiment: Effect on ephithelial-mesenchymal transition in human HepG2 cells assessed as decrease in snail expression at IC50 concentration after 48 hrs by immunoblotting analysis; format: functional, cell-based
HT-29 [16] = experiment: Effect on ephithelial-mesenchymal transition in human HT-29 cells assessed as decrease in slug expression at IC50 concentration after 48 hrs by immunoblotting analysis; format: functional, cell-based
HepG2 [17] = experiment: Effect on ephithelial-mesenchymal transition in human HepG2 cells assessed as decrease in slug expression at IC50 concentration after 48 hrs by immunoblotting analysis; format: functional, cell-based
HT-29 [18] = experiment: Effect on ephithelial-mesenchymal transition in human HT-29 cells assessed as decrease in Zeb1 expression at IC50 concentration after 48 hrs by immunoblotting analysis; format: functional, cell-based
HepG2 [19] = experiment: Effect on ephithelial-mesenchymal transition in human HepG2 cells assessed as decrease in Zeb1 expression at IC50 concentration after 48 hrs by immunoblotting analysis; format: functional, cell-based
HT-29 [20] = experiment: Effect on ephithelial-mesenchymal transition in human HT-29 cells assessed as increase in E-cadherin expression at IC50 concentration after 48 hrs by immunoblotting analysis; format: functional, cell-based
HepG2 [21] = experiment: Effect on ephithelial-mesenchymal transition in human HepG2 cells assessed as increase in E-cadherin expression at IC50 concentration after 48 hrs by immunoblotting analysis; format: functional, cell-based
HT-29 [22] = experiment: Induction of apoptosis in human HT-29 cells assessed as increase in cleaved PARP expression at IC50 concentration after 48 hrs by immunoblotting analysis; format: functional, cell-based
HepG2 [23] = experiment: Induction of apoptosis in human HepG2 cells assessed as increase in cleaved PARP expression at IC50 concentration after 48 hrs by immunoblotting analysis; format: functional, cell-based
HT-29 [24] = experiment: Induction of apoptosis in human HT-29 cells assessed as early apoptotic cells at IC50 concentration after 24 hrs by Annexin V-FITC/propidium iodide staining based flow cytometry (reference value: 0.73%); format: functional
HT-29 [25] = experiment: Induction of apoptosis in human HT-29 cells assessed as late apoptotic cells at IC50 concentration after 24 hrs by Annexin V-FITC/propidium iodide staining based flow cytometry (reference value: 0.089%); format: functional
HT-29 [26] = experiment: Induction of apoptosis in human HT-29 cells assessed as necrotic cells at IC50 concentration after 24 hrs by Annexin V-FITC/propidium iodide staining based flow cytometry (reference value: 0.68%); format: functional
HepG2 [27] = experiment: Induction of apoptosis in human HepG2 cells assessed as early apoptotic cells at IC50 concentration after 24 hrs by Annexin V-FITC/propidium iodide staining based flow cytometry (reference value: 0%); format: functional
HepG2 [28] = experiment: Induction of apoptosis in human HepG2 cells assessed as late apoptotic cells at IC50 concentration after 24 hrs by Annexin V-FITC/propidium iodide staining-based flow cytometric analysis (reference value: 0%); format: functional
HepG2 [29] = experiment: Induction of apoptosis in human HepG2 cells assessed as necrotic cells at IC50 concentration after 24 hrs by Annexin V-FITC/propidium iodide staining-based flow cytometric analysis (reference value: 1.14%); format: functional
HT-29 [30] = experiment: Induction of apoptosis in human HT-29 cells assessed as viable cells at IC50 concentration after 24 hrs by Annexin V-FITC/propidium iodide staining based flow cytometry (reference value: 98.5%); format: functional
HepG2 [31] = experiment: Induction of apoptosis in human HepG2 cells assessed as viable cells at IC50 concentration after 24 hrs by Annexin V-FITC/propidium iodide staining based flow cytometry (reference value: 98.9%); format: functional
HT-29 [32] = experiment: Induction of apoptosis in human HT-29 cells at 8.44 uM after 24 hrs by Annexin V-FITC/propidium iodide staining based flow cytometry relative to control; format: functional
HepG2 [33] = experiment: Induction of apoptosis in human HepG2 cells at 11.22 uM after 24 hrs by Annexin V-FITC/propidium iodide staining based flow cytometry relative to control; format: functional
HT-29 [34] = experiment: Down regulation of carbonic anhydrase 9 mRNA expression in human HT-29 cells by RT-PCR analysis; format: functional, cell-based
HepG2 [35] = experiment: Down regulation of carbonic anhydrase 9 mRNA expression in human HepG2 cells by RT-PCR analysis; format: functional, cell-based
Homo sapiens [36] = species on record: Homo sapiens; experiment: Selectivity index, ratio of IC50 for human carbonic anhydrase 2 using p-nitrophenyl acetate as substrate to IC50 for human carbonic anhydrase 9 using p-nitrophenyl acetate as substrate
Homo sapiens [37] = species on record: Homo sapiens; experiment: Selectivity index, ratio of IC50 for human carbonic anhydrase 2 using p-nitrophenyl acetate as substrate to IC50 for human carbonic anhydrase 5A using p-nitrophenyl acetate as substrate by

Sequence of Carbonic anhydrase 5A, mitochondrial (P35218 whole entry): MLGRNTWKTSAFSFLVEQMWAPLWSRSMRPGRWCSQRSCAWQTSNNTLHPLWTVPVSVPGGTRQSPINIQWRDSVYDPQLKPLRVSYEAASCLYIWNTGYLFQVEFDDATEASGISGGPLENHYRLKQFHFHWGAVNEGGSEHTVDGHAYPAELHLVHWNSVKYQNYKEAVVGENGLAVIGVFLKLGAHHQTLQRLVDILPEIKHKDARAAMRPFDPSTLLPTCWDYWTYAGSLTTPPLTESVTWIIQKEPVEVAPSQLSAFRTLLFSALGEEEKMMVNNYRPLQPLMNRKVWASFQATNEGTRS
Sequence of Albumin (P02768 whole entry): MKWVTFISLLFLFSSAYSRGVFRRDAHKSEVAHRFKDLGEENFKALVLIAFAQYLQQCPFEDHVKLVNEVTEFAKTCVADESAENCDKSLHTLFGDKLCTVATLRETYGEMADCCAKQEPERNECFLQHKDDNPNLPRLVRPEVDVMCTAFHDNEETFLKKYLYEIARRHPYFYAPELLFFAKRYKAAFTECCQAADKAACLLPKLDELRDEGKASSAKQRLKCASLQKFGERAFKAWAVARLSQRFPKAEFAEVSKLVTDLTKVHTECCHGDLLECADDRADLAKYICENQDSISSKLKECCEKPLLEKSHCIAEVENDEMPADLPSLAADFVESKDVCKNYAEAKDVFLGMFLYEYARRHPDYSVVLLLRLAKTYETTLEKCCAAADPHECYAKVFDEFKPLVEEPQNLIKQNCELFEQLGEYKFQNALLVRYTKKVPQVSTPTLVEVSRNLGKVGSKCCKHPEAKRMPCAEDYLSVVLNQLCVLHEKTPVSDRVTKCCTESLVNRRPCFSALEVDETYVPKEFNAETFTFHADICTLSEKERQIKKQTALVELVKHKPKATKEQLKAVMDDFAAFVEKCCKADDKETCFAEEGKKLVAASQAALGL

IC50 (Carbonic anhydrase 9 [1]): 4.76 µM
SMILES: COc1ccc(-n2cc(COc3ccc(/C=C/C(=O)O)cc3OC)nn2)cc1

IC50 (Carbonic anhydrase 9 [1]): 0.771 µM
SMILES: COc1cc(/C=C/C(=O)O)ccc1OCc1cn(-c2ccc(Cl)cc2)nn1

IC50 (Carbonic anhydrase 9 [1]): 4.22 µM
SMILES: COc1cc(/C=C/C(=O)O)ccc1OCc1cn(-c2ccc(C)cc2)nn1

IC50 (Carbonic anhydrase 9 [1]): 7.64 µM
SMILES: COc1cc(/C=C/C(=O)O)ccc1OCc1cn(-c2ccc(F)cc2)nn1

IC50 (Carbonic anhydrase 9 [1]): 1.96 µM
SMILES: COc1cccc(-n2cc(COc3ccc(/C=C/C(=O)O)cc3OC)nn2)c1

IC50 (Carbonic anhydrase 9 [1]): 1.45 µM
SMILES: COc1cc(/C=C/C(=O)O)ccc1OCc1cn(-c2ccc([N+](=O)[O-])cc2)nn1

IC50 (Carbonic anhydrase 9 [1]): 0.92 µM
SMILES: COc1cc(/C=C/C(=O)O)ccc1OCc1cn(-c2ccc(C(=O)O)cc2)nn1

More lines, now with the values behind:

SMILES: COc1cc(/C=C/C(=O)O)ccc1OCc1cn(-c2cccc(F)c2)nn1
IC50 (Carbonic anhydrase 9 [1]): 12.2 µM

SMILES: COc1cc(/C=C/C(=O)O)ccc1OCc1cn(-c2ccccc2Cl)nn1
IC50 (Carbonic anhydrase 9 [1]): 14.5 µM

SMILES: COc1cc(/C=C/C(=O)O)ccc1OCc1cn(-c2cccc([N+](=O)[O-])c2)nn1
IC50 (Carbonic anhydrase 2): 1.99 µM | IC50 (Carbonic anhydrase 9 [1]): 0.024 µM | IC50 [2]: 1.1 µM | Kd (Carbonic anhydrase 9 [3]): 29 µM | Ka (Albumin): 5.46 ×10⁴ /M | IC50 (HT-29 [4]): 8.44 µM | IC50 (HepG2 [5]): 11.2 µM | Activity (HEK293): Non-Toxic | Activity (HT-29 [6]): Active | Activity (HepG2 [7]): Active | Activity (HT-29 [8]): Active | Activity (HepG2 [9]): Active | Activity (HT-29 [10]): Active | Activity (HepG2 [11]): Active | inhibition (HT-29 [12]): Active | inhibition (HepG2 [13]): Active | Activity (HT-29 [14]): Active | Activity (HepG2 [15]): Active | Activity (HT-29 [16]): Active | Activity (HepG2 [17]): Active | Activity (HT-29 [18]): Active | Activity (HepG2 [19]): Active | Activity (HT-29 [20]): Active | Activity (HepG2 [21]): Active | Activity (HT-29 [22]): Active | Activity (HepG2 [23]): Active | Activity (HT-29 [24]): 2.29% | Activity (HT-29 [25]): 10.5% | Activity (HT-29 [26]): 11.6% | Activity (HepG2 [27]): 2.17% | Activity (HepG2 [28]): 6.6% | Activity (HepG2 [29]): 10.3% | Activity (HT-29 [30]): 75.6% | Activity (HepG2 [31]): 80.9% | Activity (HT-29 [32]): 24.44% | Activity (HepG2 [33]): 19.22% | Activity (HT-29 [34]): Active | Activity (HepG2 [35]): Active

SMILES: COc1cc(/C=C/C(=O)O)ccc1OCc1cn(-c2ccccc2)nn1
IC50 (Carbonic anhydrase 2): > 20 µM | IC50 (Carbonic anhydrase 9 [1]): > 20 µM | IC50 [2]: > 20 µM

SMILES: COc1cc(/C=C/C(=O)O)ccc1OCc1cn(-c2cccc(Cl)c2)nn1
IC50 (Carbonic anhydrase 9 [1]): 1.37 µM

SMILES: COc1cc(/C=C/C(=O)O)ccc1OCc1cn(-c2ccccc2C)nn1
IC50 (Carbonic anhydrase 9 [1]): 3.64 µM

SMILES: COc1cc(/C=C/C(=O)O)ccc1OCc1cn(-c2ccccc2[N+](=O)[O-])nn1
IC50 (Carbonic anhydrase 9 [1]): 2.44 µM

SMILES: COc1cc(/C=C/C(=O)O)ccc1OCc1cn(-c2cccc(C)c2)nn1
IC50 (Carbonic anhydrase 9 [1]): 5.24 µM

SMILES: COc1cc(/C=C/C(=O)O)ccc1OCc1cn(-c2ccccc2OC)nn1
IC50 (Carbonic anhydrase 9 [1]): 2.6 µM

SMILES: COc1cc(/C=C/C(=O)O)ccc1O [FERULATE]
IC50 (Carbonic anhydrase 2): 6.44 µM | IC50 (Carbonic anhydrase 9 [1]): 9.39 µM | IC50 [2]: 8.86 µM | Ratio IC50 (Homo sapiens [36]): 0.7 | Ratio IC50 (Homo sapiens [37]): 0.7

SMILES: COc1cc(/C=C/C(=O)O)ccc1OCc1cn(-c2ccccc2F)nn1
IC50 (Carbonic anhydrase 9 [1]): 8.94 µM
